{
  "source": "the supplement of paper PMC10307832",
  "test_in_all_cases": "relative viability (nuclei count vs DMSO), 5 days (fraction); higher = more cells survive",
  "key": {"KIN001-266": {"compound": "CCN1CCC(CC1)N2C=C(N=N2)CNC3=CC4=C(C(=CN=C4C(=C3)Cl)C#N)NC5=CC(=C(C=C5)F)Cl [KIN001-266]", "outline": "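Viability here means nuclei in treated wells divided by nuclei in vehicle wells, reported as the median across plates. Only plates with control CV below 25% and at least one doubling passed. Lung cancer cell lines in 1536-well plates were exposed to five √10-spaced library-drug doses for 5 days and counted from 4× Hoechst images in MetaXpress.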"}, "KIN001-266 + Bortezomib": {"compound": "CCN1CCC(CC1)N2C=C(N=N2)CNC3=CC4=C(C(=CN=C4C(=C3)Cl)C#N)NC5=CC(=C(C=C5)F)Cl [KIN001-266] + CC(C)C[C@H](NC(=O)[C@H](Cc1ccccc1)NC(=O)c1cnccn1)B(O)O [Bortezomib] (partner 0.002 µM)", "outline": "(§1)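 Lung cancer cell lines in 1536-well plates got either a single drug or a fixed anchor-drug dose together with five library-drug doses (not always all listed) in √10 steps, by pin tool, on the day after seeding. Nuclei were counted after 5 days, and relative viability is the treated-to-vehicle ratio of nuclei counts. Values are medians of duplicate plates.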"}, "KIN001-266 + Navitoclax": {"compound": "CCN1CCC(CC1)N2C=C(N=N2)CNC3=CC4=C(C(=CN=C4C(=C3)Cl)C#N)NC5=CC(=C(C=C5)F)Cl [KIN001-266] + CC1(C)CCC(c2ccc(Cl)cc2)=C(CN2CCN(c3ccc(C(=O)NS(=O)(=O)c4ccc(N[C@H](CCN5CCOCC5)CSc5ccccc5)c(S(=O)(=O)C(F)(F)F)c4)cc3)CC2)C1 [Navitoclax] (partner 0.5 µM)", "outline": "as §1"}, "KIN001-266 + Foretinib": {"compound": "CCN1CCC(CC1)N2C=C(N=N2)CNC3=CC4=C(C(=CN=C4C(=C3)Cl)C#N)NC5=CC(=C(C=C5)F)Cl [KIN001-266] + COc1cc2c(Oc3ccc(NC(=O)C4(C(=O)Nc5ccc(F)cc5)CC4)cc3F)ccnc2cc1OCCCN1CCOCC1 [Foretinib] (partner 0.25 µM)", "outline": "as §1"}, "KIN001-266 + Lapatinib": {"compound": "CCN1CCC(CC1)N2C=C(N=N2)CNC3=CC4=C(C(=CN=C4C(=C3)Cl)C#N)NC5=CC(=C(C=C5)F)Cl [KIN001-266] + CS(=O)(=O)CCNCc1ccc(-c2ccc3ncnc(Nc4ccc(OCc5cccc(F)c5)c(Cl)c4)c3c2)o1 [Lapatinib] (partner 2 µM)", "outline": "as §1"}, "KIN001-266 + Pictilisib": {"compound": "CCN1CCC(CC1)N2C=C(N=N2)CNC3=CC4=C(C(=CN=C4C(=C3)Cl)C#N)NC5=CC(=C(C=C5)F)Cl [KIN001-266] + CS(=O)(=O)N1CCN(Cc2cc3nc(-c4cccc5[nH]ncc45)nc(N4CCOCC4)c3s2)CC1 [Pictilisib] (partner 1 µM)", "outline": "as §1"}, "KIN001-266 + Crizotinib": {"compound": "CCN1CCC(CC1)N2C=C(N=N2)CNC3=CC4=C(C(=CN=C4C(=C3)Cl)C#N)NC5=CC(=C(C=C5)F)Cl [KIN001-266] + C[C@@H](Oc1cc(-c2cnn(C3CCNCC3)c2)cnc1N)c1c(Cl)ccc(F)c1Cl [Crizotinib] (partner 1 µM)", "outline": "as §1"}, "KIN001-266 + Linsitinib": {"compound": "CCN1CCC(CC1)N2C=C(N=N2)CNC3=CC4=C(C(=CN=C4C(=C3)Cl)C#N)NC5=CC(=C(C=C5)F)Cl [KIN001-266] + C[C@]1(O)C[C@@H](c2nc(-c3ccc4ccc(-c5ccccc5)nc4c3)c3c(N)nccn32)C1 [Linsitinib] (partner 1 µM)", "outline": "as §1"}, "KIN001-266 + Alpelisib": {"compound": "CCN1CCC(CC1)N2C=C(N=N2)CNC3=CC4=C(C(=CN=C4C(=C3)Cl)C#N)NC5=CC(=C(C=C5)F)Cl [KIN001-266] + Cc1nc(NC(=O)N2CCC[C@H]2C(N)=O)sc1-c1ccnc(C(C)(C)C(F)(F)F)c1 [Alpelisib] (partner 2 µM)", "outline": "as §1"}, "KIN001-266 + Olaparib": {"compound": "CCN1CCC(CC1)N2C=C(N=N2)CNC3=CC4=C(C(=CN=C4C(=C3)Cl)C#N)NC5=CC(=C(C=C5)F)Cl [KIN001-266] + O=C(c1cc(Cc2n[nH]c(=O)c3ccccc23)ccc1F)N1CCN(C(=O)C2CC2)CC1 [Olaparib] (partner 8 µM)", "outline": "as §1"}},
  "data": [
    {"cell line": "NCI-H1299", "values": [
      {"measurement": "relative viability", "setting": "KIN001-266; 0.08 µM", "value": 0.987},
      {"measurement": "relative viability", "setting": "KIN001-266; 0.253 µM", "value": 0.996},
      {"measurement": "relative viability", "setting": "KIN001-266; 0.8 µM", "value": 1},
      {"measurement": "relative viability", "setting": "KIN001-266; 2.53 µM", "value": 0.928},
      {"measurement": "relative viability", "setting": "KIN001-266; 8 µM", "value": 0.869},
      {"measurement": "relative viability", "setting": "KIN001-266 + Bortezomib; first compound 0.08 µM", "value": 1.02},
      {"measurement": "relative viability", "setting": "KIN001-266 + Bortezomib; first compound 0.253 µM", "value": 1.01},
      {"measurement": "relative viability", "setting": "KIN001-266 + Bortezomib; first compound 0.8 µM", "value": 0.984},
      {"measurement": "relative viability", "setting": "KIN001-266 + Bortezomib; first compound 2.53 µM", "value": 0.962},
      {"measurement": "relative viability", "setting": "KIN001-266 + Bortezomib; first compound 8 µM", "value": 0.882},
      {"measurement": "relative viability", "setting": "KIN001-266 + Navitoclax; first compound 0.08 µM", "value": 1.04},
      {"measurement": "relative viability", "setting": "KIN001-266 + Navitoclax; first compound 0.253 µM", "value": 1.04},
      {"measurement": "relative viability", "setting": "KIN001-266 + Navitoclax; first compound 0.8 µM", "value": 0.995},
      {"measurement": "relative viability", "setting": "KIN001-266 + Navitoclax; first compound 2.53 µM", "value": 1.01},
      {"measurement": "relative viability", "setting": "KIN001-266 + Navitoclax; first compound 8 µM", "value": 0.897},
      {"measurement": "relative viability", "setting": "KIN001-266 + Foretinib; first compound 0.08 µM", "value": 1.06},
      {"measurement": "relative viability", "setting": "KIN001-266 + Foretinib; first compound 0.253 µM", "value": 1.1},
      {"measurement": "relative viability", "setting": "KIN001-266 + Foretinib; first compound 0.8 µM", "value": 1.05},
      {"measurement": "relative viability", "setting": "KIN001-266 + Foretinib; first compound 2.53 µM", "value": 0.994},
      {"measurement": "relative viability", "setting": "KIN001-266 + Foretinib; first compound 8 µM", "value": 0.964},
      {"measurement": "relative viability", "setting": "KIN001-266 + Lapatinib; first compound 0.08 µM", "value": 0.918},
      {"measurement": "relative viability", "setting": "KIN001-266 + Lapatinib; first compound 0.253 µM", "value": 0.959},
      {"measurement": "relative viability", "setting": "KIN001-266 + Lapatinib; first compound 0.8 µM", "value": 0.902},
      {"measurement": "relative viability", "setting": "KIN001-266 + Lapatinib; first compound 2.53 µM", "value": 0.854},
      {"measurement": "relative viability", "setting": "KIN001-266 + Lapatinib; first compound 8 µM", "value": 0.855},
      {"measurement": "relative viability", "setting": "KIN001-266 + Pictilisib; first compound 0.08 µM", "value": 0.98},
      {"measurement": "relative viability", "setting": "KIN001-266 + Pictilisib; first compound 0.253 µM", "value": 0.754},
      {"measurement": "relative viability", "setting": "KIN001-266 + Pictilisib; first compound 0.8 µM", "value": 0.893},
      {"measurement": "relative viability", "setting": "KIN001-266 + Pictilisib; first compound 2.53 µM", "value": 0.75},
      {"measurement": "relative viability", "setting": "KIN001-266 + Pictilisib; first compound 8 µM", "value": 0.424},
      {"measurement": "relative viability", "setting": "KIN001-266 + Crizotinib; first compound 0.08 µM", "value": 0.946},
      {"measurement": "relative viability", "setting": "KIN001-266 + Crizotinib; first compound 0.253 µM", "value": 0.921},
      {"measurement": "relative viability", "setting": "KIN001-266 + Crizotinib; first compound 0.8 µM", "value": 0.941},
      {"measurement": "relative viability", "setting": "KIN001-266 + Crizotinib; first compound 2.53 µM", "value": 0.87},
      {"measurement": "relative viability", "setting": "KIN001-266 + Crizotinib; first compound 8 µM", "value": 0.817},
      {"measurement": "relative viability", "setting": "KIN001-266 + Linsitinib; first compound 0.08 µM", "value": 0.955},
      {"measurement": "relative viability", "setting": "KIN001-266 + Linsitinib; first compound 0.253 µM", "value": 0.984},
      {"measurement": "relative viability", "setting": "KIN001-266 + Linsitinib; first compound 0.8 µM", "value": 1},
      {"measurement": "relative viability", "setting": "KIN001-266 + Linsitinib; first compound 2.53 µM", "value": 0.946},
      {"measurement": "relative viability", "setting": "KIN001-266 + Linsitinib; first compound 8 µM", "value": 0.899},
      {"measurement": "relative viability", "setting": "KIN001-266 + Alpelisib; first compound 0.08 µM", "value": 1.04},
      {"measurement": "relative viability", "setting": "KIN001-266 + Alpelisib; first compound 0.253 µM", "value": 1.05},
      {"measurement": "relative viability", "setting": "KIN001-266 + Alpelisib; first compound 0.8 µM", "value": 0.548},
      {"measurement": "relative viability", "setting": "KIN001-266 + Alpelisib; first compound 2.53 µM", "value": 0.975},
      {"measurement": "relative viability", "setting": "KIN001-266 + Alpelisib; first compound 8 µM", "value": 1.01},
      {"measurement": "relative viability", "setting": "KIN001-266 + Olaparib; first compound 0.08 µM", "value": 0.941},
      {"measurement": "relative viability", "setting": "KIN001-266 + Olaparib; first compound 0.253 µM", "value": 1.03},
      {"measurement": "relative viability", "setting": "KIN001-266 + Olaparib; first compound 0.8 µM", "value": 0.933},
      {"measurement": "relative viability", "setting": "KIN001-266 + Olaparib; first compound 2.53 µM", "value": 0.859},
      {"measurement": "relative viability", "setting": "KIN001-266 + Olaparib; first compound 8 µM", "value": 0.775}
    ]}
  ]
}
